# Values quoted from earlier work, collected in patent publication US5798310A, “Glyphosate compositions and their use” (Monsanto Europe S.A., priority 1995, dated 1998).
# Settings: literature
row,Structure (SMILES),effect on herbicidal activity of glyphosate
1,N.N.O=S(=O)(O)O [ammonium sulphate],further enhance the herbicidal activity
2,N#CS [ammonium thiocyanate],further enhance the herbicidal activity
